Legend:
HeLa = test: MTT cytotoxicity assay, HeLa; assay type: cell-based, human; settings: 48 h, mean ± SD of three experiments
Protocol: (§1) Compounds 1–4 were evaluated against three tumor cell lines derived from different tissues, including the cervix (HeLa), lung (A549) and cisplatin-resistant lung (A549R) tissues. For comparison, the cytotoxicity of cisplatin was also evaluated. As a control, the toxicities of the complexes were also tested against the normal human cell line (LO2).
(§2) The human cervix carcinoma cell line (HeLa), the lung carcinoma cell lines (A549 and A549R), and the human hepatocyte cell line (LO2) were obtained from the Experimental Animal Center at Sun Yat-Sen University (Guangzhou, China). The cells were maintained in Dulbecco’s modified Eagle’s medium (DMEM, Gibco BRL) or Roswell Park Memorial Institute 1640 (RPMI 1640, Gibco BRL) medium supplemented with 10% fetal bovine serum (FBS, Gibco BRL), 100 μg/mL streptomycin, and 100 U/mL penicillin (Gibco BRL) in a humidified incubator under 5% CO2 and 20% O2 at 37 °C. To maintain the resistant phenotype, A549R cells were incubated with 5 μM cisplatin and cultured in drug-free medium for at least a week before use.
(§3) The cytotoxicity of the ruthenium complexes and cisplatin were determined by an MTT assay. Briefly, cells were seeded into 96-well microtiter plates at 1 × 10^4 cells per well and grown overnight at 37 °C in a 5% CO2 incubator; then, different concentrations of the complexes in cell culture medium were added to the cultures. The plates were then incubated in an incubator for 48 h under the same conditions. The stock MTT dye solution (15 μL, 5 mg/mL) was added to each well. After 4 h of incubation, the cultures were removed and 150 μL of DMSO was added to each well. The optical density of each well was measured on a microplate spectrophotometer at a wavelength of 595 nm.

A549 = test: MTT cytotoxicity assay, A549; assay type: cell-based, human; settings: A549, 48 h, mean ± SD of three experiments
Protocol: as §1, §2, §3

A549R = test: MTT cytotoxicity assay, cisplatin-resistant A549R; assay type: cell-based, human; settings: 48 h, mean ± SD of three experiments
Protocol: as §1, §2, §3

LO2 = test: MTT cytotoxicity assay, normal LO2 cells; assay type: cell-based; settings: LO2 normal human cell line, 48 h
Protocol: as §1, §2, §3

A549R MCTSs [1] = test: Cytotoxicity test on 3D MCTSs (Cell TiterGlo ATP); assay type: cell-based, human; settings: A549R MCTSs (~400 μm in diameter), 48 h
Protocol: (§4) MCTSs were cultured using the liquid overlay method. A549R cells in the exponential growth phase were dissociated by a trypsin/EDTA solution to gain single-cell suspensions. A number of 3000 diluted A549R cells were transferred to 1.5% agarose-coated transparent 96-well plates with 200 μL of DMEM containing 10% serum. The single cells formed MCTS aggregates approximately 400 μm in diameter after three days with 5% CO2 and 20% O2 at 37 °C. After formation of the MCTSs, each MCTS in a 96-well plate was imaged with a phase contrast microscope (Zeiss Axio Observer D1, Germany) using 10× objective to monitor their color, integrity, diameter, and volume.
A549R MCTSs (diameters ≈400 μm) were treated by carefully replacing 50% of the medium with drug-supplemented standard medium using an eight-channel pipet. In parallel, 50% of the medium containing solvent was replaced with solvent-free medium for the untreated MCTSs. Three A549R MCTSs were treated per condition and drug concentration; the DMSO volume was less than 1% (v/v). The MCTSs were then allowed to incubate for another 48 h. The cytotoxicities of the Ru(II) complexes toward the MCTSs were measured using ATP concentrations with a Cell TiterGlo kit (Promega). After 30 min of incubation, the MCTSs were carefully transferred into black-sided, flat-bottomed 96-well plates (Corning) and mixed with a pipet for luminescence measurements on an Infinite M200 PRO instrument (TECAN).

[2] = tested on: cancer cell lines (HeLa, A549, A549R); test: MTT cytotoxicity, all tested cancer cell lines taken together; assay type: cell-based, human; settings: 48 h, read-out: IC50 toward all the tested cancer cell lines
Protocol: as §1, §3

[3] = Distribution coefficient (log Po/w), flask-shaking, n-octanol/phosphate buffer; assay type: physicochemical; settings: n-octanol / phosphate buffer pH 7.4, 37 °C; in words only (Figure S8)
Protocol: Distribution coefficients (log Po/w) were determined by liquid-liquid extraction between n-octanol (oil) and phosphate buffers (0.2 M, pH 7.4) with the flask-shaking method. N-Octanol and the buffer were mutually saturated with each other for at least 24 h before use. An aliquot of a ruthenium complex stock solution was added to the phosphate buffer concentrations at <10 mg/mL, and the mixture was shaken at 100 rpm for 24 h at 37 °C to allow for adequate partitioning. After the sample was centrifuged at 3000 rpm for 20 min, the aqueous layer was used for ruthenium analysis, and the Ru content in the aqueous layer was measured by ICP-MS and used to calculate the log Po/w.

A549R cells [4] = test: Cell uptake study by ICP-MS; assay type: cell-based, human; settings: 2.0 μM, 12 h
Protocol: (§5) To understand the high sensitivity of cancer cells to Ru(II) complexes, the extent of cellular uptake was investigated with inductively coupled plasma mass spectrometry (ICP-MS) by treating the HeLa, A549, A549R and LO2 cell lines with 2.0 μM concentrations of the Ru(II) complexes and cisplatin for 12 h. […] In this study, the cellular uptake and lipophilicity were distinctly correlated and followed the order: 4 >3 >2 >1. Complex 4 had the best accumulation, but the amount of Ru in LO2 cells was far less than that in the three cancer lines, indicating selective accumulation and improved efficiency for treating cancer. Cisplatin was taken up more efficiently by the sensitive cell line (A549) than by the cisplatin-resistant cell line (A549R). […] However, less than 1.5% of the cellular platinum was accumulated in the mitochondrial fraction of the A549R cells. Therefore, complex 4 could function in a different manner than cisplatin in A549R cells, which would be an appropriate solution to combat cisplatin resistance in tumor cells.
The cells were plated at a density of 1 × 10^5 cells/mL in 10 mL of DMEM for 24 h at 37 °C under 5% CO2 and 20% O2, Ruthenium complexes (2.0 μM) and cisplatin were added to the culture medium and incubated for 12 h, and mixed with cold PBS and a trypsin-EDTA solution in a centrifuge tube for counting. Then, the nuclei and cytoplasm of the cells were extracted by using a Nuclear and Cytoplasmic Protein Extraction Kit (Life Technologies). The samples were digested in 20% HNO3 and 10% H2O2 at room temperature overnight. Each sample was then diluted with Milli-Q water to obtain 2% HNO3 sample solutions. Ruthenium contents were determined using inductively coupled plasma mass spectrometry (ICP-MS Thermo Elemental Co., Ltd.).

A549R cells [5] = test: Subcellular distribution study by ICP-MS; assay type: cell-based, human; settings: 2.0 μM, 12 h
Protocol: as §5
A549R cells were plated at a density of 1 × 10^5 cells/mL in 10 mL of DMEM for 24 h at 37 °C under 5% CO2 and 20% O2. […] The ruthenium or platinum contents were determined using inductively coupled plasma mass spectrometry (ICP-MS Thermo Elemental Co., Ltd.).

A549R cells [6] = test: Real-time cell growth and proliferation assay (xCELLigence); assay type: cell-based, human; settings: 100 μM
Protocol: In addition, a real-time cell growth and proliferation assay using an xCELLigence System was utilized to confirm the high toxicity of complex 4 on A549R cells. […] In contrast, A549R cells were killed by treatment with complex 4 in a concentration-dependent manner.
This experiment was performed using an xCELLigence RTCA DP system real time cell analyzer (Roche Diagnostics GmbH, Germany). In brief, 80 μL of cell culture media was added to each well of a 16-well plate (E-plate 16, Roche Diagnostics GmbH, Germany). The 16-well plates were then connected to the system and checked for suitable electrical contacts in the real time cell analyzer, and the background impedance was measured for 24 s. Meanwhile, the A549R cells were suspended in cell culture medium and adjusted to 5 × 10^4 cells/mL, and 100 μL of each cell suspension was added to each well of […]. Approximately 24 h after seeding, the A549R cells were in the logarithmic phase of growth, and a wide range of concentrations of complex 4 and cisplatin (100 μM) were added. The cells were automatically monitored every 15 min over 48 h by the xCELLigence system. Data were analyzed using RTCA software (version 1.2) that was supplied with the instrument.

A549R MCTSs [7] = test: Growth inhibition of drug-treated MCTSs (size by imaging); assay type: cell-based, human; settings: 100 μM
From the text: Traditional research on the efficacy of cancer drugs is usually performed in two-dimensional (2-D) cell cultures, which may not be a true indicator of the in vivo effectiveness of cancer treatments. This is in part due to the absence of cell-cell or cell-extracellular matrix interactions in 2-D cell models. Therefore, the development of cell culture models that can close the gap between conventional 2-D cell experiments and animal studies is necessary to study the cytotoxicity and anti-proliferative activities of drugs. Multicellular tumor spheroids (MCTSs) are heterogeneous cellular aggregates that have properties of solid tumors, such as nutrient and oxygen gradients, hypoxic/necrotic regions, cell-cell matrix interactions, and gene expression.
as §4, with “After formation of the MCTSs, each MCTS in a 96-well plate was imaged with a phase contrast microscope (Zeiss Axio Observer D1, Germany) using 10× objective to monitor their color, integrity, diameter, and volume.” left out

| Compound | IC50 (HeLa) | IC50 (A549) | IC50 (A549R) | IC50 (LO2) | IC50 (A549R MCTSs [1]) | IC50 [2] | log Po/w [3] | share of the compound taken up by A549R cells (A549R cells [4]; A549R) | platinum level in A549 cells relative to A549R cells (A549R cells [4]; A549 vs A549R) | share of cellular metal accumulated in the mitochondrial fraction (A549R cells [5]) | effect on A549R cells compared to the control (xCELLigence) (A549R cells [6]) | change in size of A549R MCTSs (A549R MCTSs [7]) |
| --- | --- | --- | --- | --- | --- | --- | --- | --- | --- | --- | --- | --- |
| [Ru+2].c1ccc(-c2nc3c4cccnc4c4ncccc4c3[nH]2)cc1.c1cnc2c(c1)ccc1cccnc12.c1cnc2c(c1)ccc1cccnc12 [Complex 1, [Ru(phen)2(PIP)]^2+] | > 100 µM | > 100 µM | > 100 µM | > 100 µM | > 100 µM | > 100 µM | negative | – | – | – | – | – |
| FC(F)(F)c1ccc(-c2nc3c4cccnc4c4ncccc4c3[nH]2)cc1.[Ru+2].c1cnc2c(c1)ccc1cccnc12.c1cnc2c(c1)ccc1cccnc12 [Complex 2] | 55.4 ± 3.1 µM | 43.4 ± 5.3 µM | 48.2 ± 2.7 µM | 75.8 ± 7.5 µM | 95.7 µM | – | moderate | – | – | – | – | – |
| N.N.[Cl][Pt][Cl] [cisplatin] | 15.1 ± 2.1 µM | 21.3 ± 3.3 µM | 142 ± 5.4 µM | 18.9 ± 2.6 µM | > 200 µM | – | – | less than 1% | ca. 4 fold | less than 1.5% | negative effect | increased with time |
| Ru(phen)2(tbtfpip)(PF6)2 [Complex 3] | 22.5 ± 3.3 µM | 28.6 ± 2.6 µM | 32.2 ± 1.5 µM | 45.6 ± 3.8 µM | 60.6 ± 5.5 µM | – | moderate | – | – | – | – | – |
